{"source": "patent US4272437A", "about": "“Antibacterial agents, and 4-thio azetidinone intermediates” (priority 1979, dated 1981)", "key": {"[1]": {"system": "Str. pyogenes A-9604", "test": "MIC, tube dilution, Streptococcus pyogenes A9604", "type": "cell-based", "conditions": "Streptococcus pyogenes, A9604, Str. pyogenes A9604; overnight 37° C., Nutrient Broth; read-out: Minimum Inhibitory Concentration (M.I.C.)", "source_text": "(§1) Representative compounds of the present invention were subjected to in vitro antibiotic screening against a variety of microorganisms."}, "[2]": {"system": "Ent. cloacae A-9656", "test": "MIC, tube dilution, Enterobacter cloacae A9656", "type": "cell-based", "conditions": "Enterobacter cloacae A9656; overnight 37° C.; read-out: Minimum Inhibitory Concentration (M.I.C.)", "source_text": "as §1"}, "[3]": {"system": "Proteus vulgaris A9555", "test": "MIC, tube dilution, Proteus vulgaris (mirabilis) A9555", "type": "cell-based", "conditions": "overnight 37° C., read-out: Minimum Inhibitory Concentration (M.I.C.)", "source_text": "as §1"}, "[4]": {"system": "Klebsiella species A20468", "test": "MIC, tube dilution, Klebsiella species A20468", "type": "cell-based", "conditions": "Klebsiella species (K. pneumoniae) A20468; overnight 37° C.; read-out: Minimum Inhibitory Concentration (M.I.C.)", "source_text": "as §1"}, "[5]": {"system": "Proteus rettgeri A21203", "test": "MIC, tube dilution, Proteus rettgeri A21203", "type": "cell-based", "conditions": "Providencia rettgeri; Proteus rettgeri A21203; overnight 37° C.; read-out: Minimum Inhibitory Concentration (M.I.C.)", "source_text": "as §1"}, "[6]": {"system": "Staph. aureus (Pen-Res) A-9606", "test": "MIC, tube dilution, Staphylococcus aureus A9606 (Pen-Res)", "type": "cell-based", "conditions": "Staphylococcus aureus, read-out: Minimum Inhibitory Concentration (M.I.C.), Staph. aureus A9606 (Pen-Res); overnight 37° C.", "source_text": "as §1"}, "[7]": {"system": "Pr. mirabilis A-9900", "test": "MIC, tube dilution, Proteus mirabilis A9900", "type": "cell-based", "conditions": "Proteus mirabilis, A9900, Proteus mirabilis A9900; overnight 37° C.; read-out: Minimum Inhibitory Concentration (M.I.C.)", "source_text": "as §1"}, "[8]": {"system": "Str. faecalis A-20688", "test": "MIC, tube dilution, Streptococcus faecalis A20688", "type": "cell-based", "conditions": "Enterococcus faecalis, A20688, Str. faecalis A20688; overnight 37° C.; read-out: Minimum Inhibitory Concentration (M.I.C.)", "source_text": "as §1"}, "[9]": {"system": "Ps. aeruginosa A-21213", "test": "MIC, tube dilution, Pseudomonas aeruginosa A21213", "type": "cell-based", "conditions": "Pseudomonas aeruginosa A21213; overnight 37° C.; read-out: Minimum Inhibitory Concentration (M.I.C.)", "source_text": "as §1"}, "[10]": {"system": "E. coli A-20341-1", "test": "MIC, tube dilution, Escherichia coli A20341-1", "type": "cell-based", "conditions": "Escherichia coli, A203411; E. coli A20341-1; overnight 37° C.; read-out: Minimum Inhibitory Concentration (M.I.C.)", "source_text": "as §1"}, "[11]": {"system": "Ser. marcescens A-20019", "test": "MIC, tube dilution, Serratia marcescens A20019", "type": "cell-based", "conditions": "Serratia marcescens, A20019, Serratia marcescens A20019; overnight 37° C.; read-out: Minimum Inhibitory Concentration (M.I.C.)", "source_text": "as §1"}, "[12]": {"system": "Staph. aureus A-9537 and 50% serum", "test": "MIC, tube dilution, Staph. aureus A9537 + 50% serum", "type": "cell-based, Staphylococcus aureus", "conditions": "Staphylococcus aureus, overnight 37° C., read-out: Minimum Inhibitory Concentration (M.I.C.)", "source_text": "as §1"}, "[13]": {"system": "Staph. aureus A-9537", "test": "MIC, tube dilution, Staphylococcus aureus A9537", "type": "cell-based", "conditions": "Staphylococcus aureus, A9537, Staph. aureus A9537; overnight 37° C., Nutrient Broth; read-out: Minimum Inhibitory Concentration (M.I.C.)", "source_text": "as §1"}, "[14]": {"system": "Str. pneumoniae A-9585", "test": "MIC, tube dilution, Streptococcus pneumoniae A9585", "type": "cell-based", "conditions": "Streptococcus pneumoniae, A9585, Str. pneumoniae A9585; overnight 37° C., Nutrient Broth; read-out: Minimum Inhibitory Concentration (M.I.C.)", "source_text": "as §1"}, "[15]": {"system": "Pr. morganii A-15153", "test": "MIC, tube dilution, Proteus morganii A15153", "type": "cell-based", "conditions": "Morganella morganii, A15153, Proteus morganii A15153; overnight 37° C.; read-out: Minimum Inhibitory Concentration (M.I.C.)", "source_text": "as §1"}, "[16]": {"system": "E. coli A-15119", "test": "MIC, tube dilution, Escherichia coli A15119", "type": "cell-based", "conditions": "Escherichia coli, A15119, E. coli A15119; overnight 37° C.; read-out: Minimum Inhibitory Concentration (M.I.C.)", "source_text": "as §1"}, "[17]": {"system": "K. pneumoniae A-15130", "test": "MIC, tube dilution, Klebsiella pneumoniae A15130", "type": "cell-based", "conditions": "Klebsiella pneumoniae, A15130, K. pneumoniae A15130; overnight 37° C.; read-out: Minimum Inhibitory Concentration (M.I.C.)", "source_text": "as §1"}, "[18]": {"system": "Ps. aeruginosa A-9843A", "test": "MIC, tube dilution, Pseudomonas aeruginosa A9843A", "type": "cell-based", "conditions": "Pseudomonas aeruginosa, A9843A, read-out: Minimum Inhibitory Concentration (M.I.C.), Pseudomonas aeruginosa A9843A; overnight 37° C.", "source_text": "as §1"}, "[19]": {"system": "Staph. aureus (Meth-Res) A-15097", "test": "MIC, tube dilution, Staphylococcus aureus A15097 (Meth-Res)", "type": "cell-based", "conditions": "Staphylococcus aureus, read-out: Minimum Inhibitory Concentration (M.I.C.), Staph. aureus A15097 (Meth-Res); overnight 37° C.", "source_text": "as §1"}, "[20]": {"system": "Ent. cloacae A-9659", "test": "MIC, tube dilution, Enterobacter cloacae A9659", "type": "cell-based", "conditions": "Enterobacter cloacae, A9659, Enterobacter cloacae A9659; overnight 37° C.; read-out: Minimum Inhibitory Concentration (M.I.C.)", "source_text": "as §1"}}, "data": [{"smiles": "CC(C)OP(=O)(CCC1=C(C(=O)O)N2C(=O)CC2S1)OC(C)C", "note": "(stereo not shown) [Preparation 54]", "values": [{"measurement": "MIC", "setting": "[1]", "value": 125, "unit": "µg/mL"}, {"measurement": "MIC", "setting": "[2]", "value": 32, "unit": "µg/mL"}, {"measurement": "MIC", "setting": "[3]", "value": "> 125", "unit": "µg/mL"}, {"measurement": "MIC", "setting": "[4]", "value": 63, "unit": "µg/mL"}, {"measurement": "MIC", "setting": "[5]", "value": 125, "unit": "µg/mL"}, {"measurement": "MIC", "setting": "[6]", "value": "> 125", "unit": "µg/mL"}, {"measurement": "MIC", "setting": "[7]", "value": 125, "unit": "µg/mL"}, {"measurement": "MIC", "setting": "[8]", "value": 63, "unit": "µg/mL"}, {"measurement": "MIC", "setting": "[9]", "value": 125, "unit": "µg/mL"}, {"measurement": "MIC", "setting": "[10]", "value": 32, "unit": "µg/mL"}, {"measurement": "MIC", "setting": "[11]", "value": 125, "unit": "µg/mL"}, {"measurement": "MIC", "setting": "[12]", "value": 32, "unit": "µg/mL"}, {"measurement": "MIC", "setting": "[13]", "value": 32, "unit": "µg/mL"}, {"measurement": "MIC", "setting": "[14]", "value": 63, "unit": "µg/mL"}, {"measurement": "MIC", "setting": "[15]", "value": 125, "unit": "µg/mL"}, {"measurement": "MIC", "setting": "[16]", "value": 63, "unit": "µg/mL"}, {"measurement": "MIC", "setting": "[17]", "value": "> 125", "unit": "µg/mL"}, {"measurement": "MIC", "setting": "[18]", "value": 125, "unit": "µg/mL"}, {"measurement": "MIC", "setting": "[19]", "value": 63, "unit": "µg/mL"}, {"measurement": "MIC", "setting": "[20]", "value": 125, "unit": "µg/mL"}]}, {"smiles": "CSc1nnc(C2=C(C(=O)O)N3C(=O)CC3S2)o1", "note": "(stereo not shown) [Example 56, Sodium 3-(5-Methylthio-1,3,4-oxadiazol-2-yl)penem-3-carboxylate]", "values": [{"measurement": "MIC", "setting": "[1]", "value": 125, "unit": "µg/mL"}, {"measurement": "MIC", "setting": "[2]", "value": "> 125", "unit": "µg/mL"}, {"measurement": "MIC", "setting": "[3]", "value": "> 125", "unit": "µg/mL"}, {"measurement": "MIC", "setting": "[4]", "value": "> 125", "unit": "µg/mL"}, {"measurement": "MIC", "setting": "[5]", "value": "> 125", "unit": "µg/mL"}, {"measurement": "MIC", "setting": "[6]", "value": "> 125", "unit": "µg/mL"}, {"measurement": "MIC", "setting": "[7]", "value": "> 125", "unit": "µg/mL"}, {"measurement": "MIC", "setting": "[8]", "value": "> 125", "unit": "µg/mL"}, {"measurement": "MIC", "setting": "[9]", "value": 125, "unit": "µg/mL"}, {"measurement": "MIC", "setting": "[10]", "value": "> 125", "unit": "µg/mL"}, {"measurement": "MIC", "setting": "[11]", "value": "> 125", "unit": "µg/mL"}, {"measurement": "MIC", "setting": "[12]", "value": "> 63", "unit": "µg/mL"}, {"measurement": "MIC", "setting": "[13]", "value": "> 125", "unit": "µg/mL"}, {"measurement": "MIC", "setting": "[14]", "value": 125, "unit": "µg/mL"}, {"measurement": "MIC", "setting": "[15]", "value": "> 125", "unit": "µg/mL"}, {"measurement": "MIC", "setting": "[16]", "value": "> 125", "unit": "µg/mL"}, {"measurement": "MIC", "setting": "[17]", "value": "> 125", "unit": "µg/mL"}, {"measurement": "MIC", "setting": "[18]", "value": 125, "unit": "µg/mL"}, {"measurement": "MIC", "setting": "[19]", "value": "> 125", "unit": "µg/mL"}, {"measurement": "MIC", "setting": "[20]", "value": "> 125", "unit": "µg/mL"}]}]}
